# Assay results taken from US10597378B2 (priority 2017, dated 2020).
# Read-outs that look alike come from different tables or passages of the source.
# Columns and labels:
# MOR = MOR (Homo sapiens, UniProt P35372); experiment: cell-based; design: expressed in transfected cells; host or cells: CHO-K1/MOR/Ga15 cells; conditions: for EC50: read-out: FLIPR Ca2+ EC50; for FLIPR Ca2+ AUC: area under the [Ca2+]i fluorescence response curve, up to 90 s
# Procedure: In an exemplary in vitro assay for identifying MOR agonists, cells that express a MOR are treated with a test compound in a cellular calcium fluorescent assay and calcium fluorescence intensity is then measured to determine whether the MOR is activated. A test compound is identified as a MOR agonist if the MOR is activated.
# EC50 herein refers to the concentration of a compound that induces a response halfway between the baseline and the maximum after a specified exposure time. AUC refers to the area under the response curve, an indication of the compound's capability of activating a MOR.
# One day before the assay, CORNING® black with clear flat bottom 96-well assay plates were coated with a 0.1 mg/mL Poly-L-Lysine solution. CHO-K1/MOR/Ga15 cells were suspended in the F12 medium and plated at a density of about 8×10^4 cells/well in […] medium. Cells were incubated in a humidified atmosphere of 10% CO2 at 37° C. overnight so as to reach an 80-90% confluent cell monolayer before the assay. On the day of the assay, 150 μL medium/well was removed from plate. […] Compounds and other reagents were dissolved in the assay buffer. […] The [Ca^2+]i fluorescence was measured up to 90 s after agonist injection.
# [1] = test system: wild-type C57BL/6 (B6) mice; experiment: Tail flick test (acute thermal pain); type: in vivo, mouse; conditions: equi-antinociceptive doses, B6 mice
# B6 mice [2] = experiment: Respiratory function test; conditions: acute, equi-antinociceptive doses
# B6 mice [3] = experiment: Cardiovascular function test (tail cuff plethysmography); conditions: acute, equi-antinociceptive doses
# mice = experiment: Conditioned place preference (CPP) test, reinstatement of morphine CPP; conditions: challenge on reinstatement day (Day 21)
# human mu-opioid receptor = target: T1, human mu-opioid receptor (Homo sapiens, UniProt P35372); experiment: cell-based; type: cell-based
# T1 construct: expressed in transfected cells; host or cells: HEK-293 (HEK-MOR), kept under G418
# Procedure: Cells (72,000 per well) were plated in 100 μl/well of DMEM in 96-well solid-bottom white plates (GIBCO) and 50 μl/well of drug in HBSS in the presence of forskolin and 3-isobutyl-1-methylxanthine at final concentrations of 1 μM and 500 μM, respectively. After 30 min of incubation at room temperature, the concentration of cyclic adenosine monophosphate was determined using a LANCE Ultra cAMP Assay kit (PerkinElmer).
# As MOR belongs to the GPCR family, activation of MOR leads to a decrease in intracellular cAMP level.
# Sequence of MOR (P35372 whole entry): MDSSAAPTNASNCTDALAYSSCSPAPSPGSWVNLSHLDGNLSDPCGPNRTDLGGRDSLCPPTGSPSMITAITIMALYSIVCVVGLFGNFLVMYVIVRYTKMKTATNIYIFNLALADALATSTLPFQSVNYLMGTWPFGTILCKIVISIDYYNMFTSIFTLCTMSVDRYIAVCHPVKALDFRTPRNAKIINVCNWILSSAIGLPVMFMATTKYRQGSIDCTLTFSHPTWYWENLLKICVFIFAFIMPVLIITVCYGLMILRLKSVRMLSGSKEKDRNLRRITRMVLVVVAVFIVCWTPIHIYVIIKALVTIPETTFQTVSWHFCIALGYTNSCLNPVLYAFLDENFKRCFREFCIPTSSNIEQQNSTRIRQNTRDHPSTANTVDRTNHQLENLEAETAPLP
# T1 sequence (P35372 whole entry): as above
Compound,EC50 (MOR; CHO-K1/MOR/Ga15 cells) [nM],FLIPR Ca2+ AUC (MOR),EC50 (MOR) [nM],also measured
"O=C(NCC1NCCc2ccccc21)C1CCCC1 (centres unmarked) [Compound 43, N-(1,2,3,4-Tetrahydro-1-isoquinolinylmethyl)cyclopentanecarboxamide]",8910,5768,,
"O=C(NCC1NCCc2ccccc21)C1CCC1 (centres unmarked) [Compound 44, N-(1,2,3,4-Tetrahydro-1-isoquinolinylmethyl)cyclobutanecarboxamide]",6800,3646,,
"O=C(NCC1NCCc2ccccc21)c1ccccc1 (centres unmarked) [Compound 45, N-(1,2,3,4-Tetrahydro-1-isoquinolinylmethyl)benzamide]",750,8628,,
"COc1ccc(C(=O)NCC2NCCc3ccccc32)cc1 (centres unmarked) [Compound 46, 4-Methoxy-N-(1,2,3,4-tetrahydro-1-isoquinolinylmethyl)benzamide]",,,370,
"O=C(NCC1NCCc2ccccc21)c1ccc(OC(F)(F)F)cc1 (centres unmarked) [Compound 47, N-(1,2,3,4-Tetrahydro-1-isoquinolinylmethyl)-4-(trifluoromethoxy)benzamide]",,,370,
"O=C(NCC1NCCc2ccccc21)c1ccc(F)cc1 (centres unmarked) [Compound 48, 4-Fluoro-N-(1,2,3,4-tetrahydro-1-isoquinolinylmethyl)benzamide]",,,540,
"O=C(NCC1NCCc2ccccc21)c1ccc(Cl)cc1 (centres unmarked) [Compound 49, 4-Chloro-N-(1,2,3,4-tetrahydro-1-isoquinolinylmethyl)benzamide]",,,230,
"CCc1ccc(C(=O)NCC2NCCc3ccccc32)cc1 (centres unmarked) [Compound 50, 4-Ethyl-N-(1,2,3,4-tetrahydro-1-isoquinolinylmethyl)benzamide]",,,60,
"COc1cccc(C(=O)NCC2NCCc3ccccc32)c1 (centres unmarked) [Compound 51, 3-Methoxy-N-(1,2,3,4-tetrahydro-1-isoquinolinylmethyl)benzamide]",860,13302,,
"O=C(NCC1NCCc2ccccc21)c1cccc(F)c1 (centres unmarked) [Compound 52, 3-Fluoro-N-(1,2,3,4-tetrahydro-1-isoquinolinylmethyl)benzamide]",780,11425,,
"O=C(NCC1NCCc2ccccc21)c1cccc(Cl)c1 (centres unmarked) [Compound 53, 3-Chloro-N-(1,2,3,4-tetrahydro-1-isoquinolinylmethyl)benzamide]",380,13149,,
"Cc1cccc(C(=O)NCC2NCCc3ccccc32)c1 (centres unmarked) [Compound 54, 3-Methyl-N-(1,2,3,4-tetrahydro-1-isoquinolinylmethyl)benzamide]",,,370,
"COc1ccccc1C(=O)NCC1NCCc2ccccc21 (centres unmarked) [Compound 55, 2-Methoxy-N-(1,2,3,4-tetrahydro-1-isoquinolinylmethyl)benzamide]",3310,4312,,
"O=C(NCC1NCCc2ccccc21)c1ccccc1OC(F)(F)F (centres unmarked) [Compound 56, N-(1,2,3,4-Tetrahydro-1-isoquinolinylmethyl)-2-(trifluoromethoxy)benzamide]",3310,7855,,
"O=C(NCC1NCCc2ccccc21)c1ccccc1F (centres unmarked) [Compound 57, 2-Fluoro-N-(1,2,3,4-tetrahydro-1-isoquinolinylmethyl)benzamide]",3280,12102,,
"Cc1ccc(C(=O)NCC2NCCc3ccccc32)cc1C (centres unmarked) [Compound 58, 3,4-Dimethyl-N-(1,2,3,4-tetrahydro-1-isoquinolinylmethyl)benzamide]",,,120,
"O=C(NCC1NCCc2ccccc21)c1ccc(Cl)c(Cl)c1 (centres unmarked) [Compound 59, 3,4-Dichloro-N-(1,2,3,4-tetrahydro-1-isoquinolinylmethyl)benzamide]",,,250,
"Cc1ccc(C(=O)NCC2NCCc3ccccc32)c(C)c1 (centres unmarked) [Compound 60, 2,4-Dimethyl-N-(1,2,3,4-tetrahydro-1-isoquinolinylmethyl)benzamide]",660,13375,,
"Cc1ccc(C(=O)NCC2c3ccccc3CCN2C)cc1 (centres unmarked) [Compound 61, 4-Methyl-N-[(2-methyl-1,2,3,4-tetrahydro-1-isoquinolinyl)methyl]benzamide]",40,14757,,
"CCCCN1CCc2ccccc2C1CNC(=O)c1ccc(C)cc1 (centres unmarked) [Compound 62, N-[(2-Butyl-1,2,3,4-tetrahydro-1-isoquinolinyl)methyl]-4-methylbenzamide]",160,14669,,
"Cc1ccc(C(=O)NCC2c3ccccc3CCN2CC(C)C)cc1 (centres unmarked) [Compound 63, 4-Methyl-N-{[2-(2-methylpropyl)-1,2,3,4-tetrahydro-1-isoquinolinyl]methyl}benzamide]",110,18418,,
"Cc1ccc(C(=O)NCC2c3ccccc3CCN2CCCl)cc1 (centres unmarked) [Compound 64, N-{[2-(2-Chloroethyl)-1,2,3,4-tetrahydro-1-isoquinolinyl]methyl}-4-methylbenzamide]",30,,,
"CCc1ccc(C(=O)NCC2c3ccccc3CCN2C)cc1 (centres unmarked) [Compound 65, 4-Ethyl-N-[(2-methyl-1,2,3,4-tetrahydro-1-isoquinolinyl)methyl]benzamide]",10,18367,,
"Cc1ccc(C(=O)NCC2c3ccccc3CCN2C)cc1C (centres unmarked) [Compound 66, 3,4-Dimethyl-N-[(2-methyl-1,2,3,4-tetrahydro-1-isoquinolinyl)methyl]benzamide]",10,17393,,
"CN1CC[C@]23c4c5ccc(O)c4O[C@H]2[C@@H](O)C=C[C@H]3[C@H]1C5.Cl [morphine, Morphine hydrochloride, reference compound]",,,,time at which analgesic effects were exerted after acute injection [1]: 20 min; respiratory amplitude (tidal volume) (B6 mice [2]): significantly reduced respiratory amplitude (tidal volume) at 10 to 20 min; respiratory frequency (B6 mice [2]; 10-60 min): marked respiratory depression at 10 min and keep falling of respiratory frequency going through 60 min; blood pressure (B6 mice [3]): non-significant effect on blood pressure; heart rate (pulse) (B6 mice [3]): reduced from 10 to 30 min; rate-pressure product (B6 mice [3]): reduced from 10 to 20 min; reinstatement of morphine CPP (mice): induced reinstatement of morphine CPP
"[Met5]enkephalin [Met-5, reference compound]",,,,cAMP production (human mu-opioid receptor): significantly decreased cAMP production
